Source: ChEMBL document CHEMBL1201862, “PubChem BioAssay data set” (2004)
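1) Cells in 96-well plates. 2) Compound, 48 h, 5 concentrations. 3) Linear interpolation between surrounding doses. 4) Unreached endpoint = highest concentration. At the GI50, growth is halved.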 The source made the active and inactive calls. Rule as the data show it: active = GI50 up to about 1.1 µM and inactive = higher.

What was measured:
Assay in all cases: DTP human tumour cell line panel, 48 h
A498 = test system: A498
A549 = test system: A549
ACHN = test system: ACHN
COLO 205 = test system: COLO 205
DLD-1 = test system: DLD-1
HCT-116 = test system: HCT-116
HOP-62 = test system: HOP-62
IGROV-1 = test system: IGROV-1
M14 = test system: M14
MOLT-4 = test system: MOLT-4
NCI-H226 = test system: NCI-H226
OVCAR-3 = test system: OVCAR-3
SF-268 = test system: SF-268
SF-295 = test system: SF-295
SF-539 = test system: SF-539
SK-MEL-5 = test system: SK-MEL-5
SK-OV-3 = test system: SK-OV-3
SN12C = test system: SN12C
MCF7 = test system: MCF7
PC-3 = test system: PC-3

| SMILES | GI50 (A498) | GI50 (A549) | GI50 (ACHN) | GI50 (COLO 205) | GI50 (DLD-1) | GI50 (HCT-116) | GI50 (HOP-62) | GI50 (IGROV-1) | GI50 (M14) | GI50 (MOLT-4) | GI50 (NCI-H226) | GI50 (OVCAR-3) | GI50 (SF-268) | GI50 (SF-295) | GI50 (SF-539) | GI50 (SK-MEL-5) | GI50 (SK-OV-3) | GI50 (SN12C) | GI50 (MCF7) | GI50 (PC-3) |
| --- | --- | --- | --- | --- | --- | --- | --- | --- | --- | --- | --- | --- | --- | --- | --- | --- | --- | --- | --- | --- |
| NNC(=O)C(=O)N/N=C1/CCCC1C(=O)CCC(=O)Nc1ccc(Cl)cc1 (stereo not given) | > 100 µM (inactive) | > 100 µM (inactive) | 15.3 µM (inactive) | > 100 µM (inactive) | > 100 µM (inactive) | > 100 µM (inactive) | > 100 µM (inactive) | > 100 µM (inactive) | 52.2 µM (inactive) | > 100 µM (inactive) | > 100 µM (inactive) | > 100 µM (inactive) | > 100 µM (inactive) | > 100 µM (inactive) | > 100 µM (inactive) | > 100 µM (inactive) | > 100 µM (inactive) | > 100 µM (inactive) |  |  |
| O=C(CN1CCN(c2ccccc2)CC1)N1CCc2c([nH]c3ccccc23)C1c1cccnc1 (stereo not given) | > 100 µM (inactive) | 31.6 µM (inactive) | 51.8 µM (inactive) | > 100 µM (inactive) | > 53 µM (inactive) | 14.5 µM (inactive) | 34.1 µM (inactive) | > 100 µM (inactive) | 54.2 µM (inactive) | > 100 µM (inactive) | > 100 µM (inactive) | 64.9 µM (inactive) | 39.1 µM (inactive) | 23.7 µM (inactive) | 16.7 µM (inactive) | 51.3 µM (inactive) | 25.8 µM (inactive) | > 82.6 µM (inactive) |  |  |
| Oc1cc(-c2cccc(Cl)c2)nc2cc3c(cc12)OCO3 | 0.371 µM (active) | 2.47 µM (inactive) | 0.402 µM (active) | 1.85 µM (inactive) | 0.245 µM (active) |  | 0.379 µM (active) | 0.151 µM (active) | 0.179 µM (active) | 1.89 µM (inactive) |  |  |  |  | 0.257 µM (active) | 0.13 µM (active) | 0.326 µM (active) | 0.912 µM (active) | 2.83 µM (inactive) | 0.308 µM (active) |
| CC(=O)/C(=N\O)C(=O)NCc1ccccc1 | > 100 µM (inactive) | > 100 µM (inactive) | > 100 µM (inactive) | 58.9 µM (inactive) | > 100 µM (inactive) | > 100 µM (inactive) | > 100 µM (inactive) | > 100 µM (inactive) |  | > 100 µM (inactive) | > 100 µM (inactive) | > 100 µM (inactive) | > 100 µM (inactive) | > 100 µM (inactive) | > 100 µM (inactive) | > 100 µM (inactive) | > 100 µM (inactive) | > 100 µM (inactive) |  |  |
| COc1ccc(/C=C\c2cc(OC)c(OC)c(OC)c2)cc1OC | 0.236 µM (active) | 0.239 µM (active) | 0.348 µM (active) | 0.0767 µM (active) | 0.173 µM (active) | 0.135 µM (active) | 0.128 µM (active) | 0.278 µM (active) | 0.139 µM (active) | 0.194 µM (active) | 0.056 µM (active) | 0.0916 µM (active) | 0.298 µM (active) | 0.108 µM (active) | 0.113 µM (active) | 0.207 µM (active) | 0.114 µM (active) | 0.216 µM (active) | 0.0968 µM (active) | 0.112 µM (active) |
| Cn1c(=O)ccc2cc(C(=O)c3ccccc3)ccc21 | 32.6 µM (inactive) | 71.1 µM (inactive) | 36.8 µM (inactive) | > 100 µM (inactive) | > 100 µM (inactive) | 73.5 µM (inactive) | > 100 µM (inactive) | 24.7 µM (inactive) | > 100 µM (inactive) | 69.7 µM (inactive) | 21.2 µM (inactive) | 44.4 µM (inactive) | 76.6 µM (inactive) | 79.3 µM (inactive) | 42.3 µM (inactive) | 22.8 µM (inactive) | > 100 µM (inactive) | 46.6 µM (inactive) |  |  |
| CCN(CC)CC(C)(C)C(=O)/C=C/c1ccc(/C=C/C(=O)C(C)(C)CN(CC)CC)cc1 | 1.7 µM (inactive) | 1.97 µM (inactive) | 1.34 µM (inactive) | 0.339 µM (active) | 0.341 µM (active) | 0.334 µM (active) | 1.95 µM (inactive) | 1.27 µM (inactive) | 1.03 µM (active) | 0.14 µM (active) | 2.28 µM (inactive) | 0.533 µM (active) | 0.512 µM (active) | 1.22 µM (inactive) | 1.2 µM (inactive) | 1.54 µM (inactive) | 2.09 µM (inactive) | 0.471 µM (active) | 0.233 µM (active) | 0.414 µM (active) |
| CCN(CC)C(=O)N1CCN(C=S)CC1 | > 100 µM (inactive) | > 100 µM (inactive) | > 100 µM (inactive) | > 100 µM (inactive) | > 100 µM (inactive) | > 100 µM (inactive) | > 100 µM (inactive) | > 100 µM (inactive) | > 100 µM (inactive) | > 100 µM (inactive) | > 100 µM (inactive) | > 100 µM (inactive) | > 100 µM (inactive) |  | > 100 µM (inactive) | > 100 µM (inactive) | > 100 µM (inactive) | > 100 µM (inactive) |  |  |
| CN(C)CCNC(=O)c1cccc2c1nc(-c1ccc(F)cc1)c1ccccc12 | 2.2 µM (inactive) | 0.935 µM (active) | 2.64 µM (inactive) | 3.21 µM (inactive) | 2.45 µM (inactive) | 2.46 µM (inactive) | 1.22 µM (inactive) | 2.84 µM (inactive) | 5.81 µM (inactive) | 0.232 µM (active) | 2.06 µM (inactive) | 5.58 µM (inactive) | 6.58 µM (inactive) | 6.05 µM (inactive) | 3.63 µM (inactive) | 2.34 µM (inactive) | 8.47 µM (inactive) | 2.77 µM (inactive) |  |  |
| CCOc1ccccc1Nc1nc(C)c(C(=O)CC(=O)C(=O)Nc2ccccc2)s1 | 88.5 µM (inactive) | 62.8 µM (inactive) | 37.8 µM (inactive) | 49.3 µM (inactive) | 37.3 µM (inactive) | 51.8 µM (inactive) | > 100 µM (inactive) | > 100 µM (inactive) | > 100 µM (inactive) | 23.8 µM (inactive) | 24.3 µM (inactive) | 22.2 µM (inactive) | > 100 µM (inactive) | 54.1 µM (inactive) | > 100 µM (inactive) | 49.2 µM (inactive) | > 100 µM (inactive) | 34.8 µM (inactive) |  |  |
| CC(=O)O[C@@]12CO[C@@H]1C[C@H](O)[C@@]1(C)C(=O)[C@H](O)C3=C(C)[C@@H](OC(=O)[C@H](O)[C@@H](NC(=O)OC(C)(C)C)c4ccccc4)C[C@@](O)([C@@H](OC(=O)c4ccccc4)[C@H]21)C3(C)C [DOCETAXEL] | < 0.0851 µM (active) | < 0.01 µM (active) | 0.59 µM (active) | < 0.01 µM (active) | < 0.01 µM (active) | < 0.01 µM (active) | < 0.01 µM (active) | < 0.01 µM (active) |  | < 0.0631 µM (active) |  | < 0.01 µM (active) | < 0.01 µM (active) | 0.0107 µM (active) | < 0.01 µM (active) | < 0.01 µM (active) | 0.0132 µM (active) | < 0.01 µM (active) | 0.000409 µM (active) | 0.00578 µM (active) |
| OC1[C@H]([C@H]2CCCC[C@@H]2O)CCC[C@@H]1[C@@H]1CCCC[C@H]1O (stereo not given in full) | > 100 µM (inactive) | > 100 µM (inactive) | > 100 µM (inactive) | > 100 µM (inactive) | > 100 µM (inactive) | > 100 µM (inactive) | > 100 µM (inactive) | > 100 µM (inactive) | > 100 µM (inactive) | > 100 µM (inactive) | > 100 µM (inactive) | > 100 µM (inactive) | > 100 µM (inactive) | > 100 µM (inactive) | > 100 µM (inactive) | > 100 µM (inactive) | > 100 µM (inactive) | > 100 µM (inactive) |  |  |
